From PubChem BioAssay (NCI) come the findings set out here.

Assay in all cases: NCI tumour cell line growth inhibition, 48 h
Experiment [1] concerns MDA-N.
The test system of experiment [2] is DMS 114 small cell lung.
In experiment [3] the test system is KM20L2 colon.
Experiment [4] relates to DLD-1 colon.
The subject of experiment [5] is SNB-78 CNS.
The subject of experiment [6] is M19-MEL melanoma.
Experiment [7] relates to HOP-18 NSCLC.
The test system of experiment [8] is RXF-631 renal.
The test system of experiment [9] is XF 498 CNS.

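Each compound was tested at five concentrations against cells in 96-well plates for 48 hours. GI50 is the concentration that inhibits growth by half. TGI: total growth inhibition.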 *1 amine or outer side, *2 acyl side, *3 side chain or, on linkers, in order; H or OH if unused. Where a SMILES comes first, the peptide text is derived from it. Bridges are numbered along the chain shown (N, C = ends). Roman numbers before positions name the chains, in order. [ ]: non-standard residue; d: D form. Actinocin(9to1) = Cc1c2oc3c(C)ccc(C(=O)[*:1])c3nc-2c(C(=O)[*:2])c(N)c1=O; NMeF = CN[CH](Cc1ccccc1)C(=O)O; Sar = CNCC(=O)O

For `Cc1c2oc3c(C)ccc(C(=O)NC4C(=O)NC(C(C)C)C(=O)N5CCCC5C(=O)N(C)CC(=O)N(C)C(Cc5ccccc5)C(=O)OC4C)c3nc-2c(C(=O)NC2C(=O)NC(C(C)C)C(=O)N3CCCC3C(=O)N(C)CC(=O)N(C)C(Cc3ccccc3)C(=O)OC2C)c(N)c1=O` (stereo not drawn) (I: TVP[Sar][NMeF] / II: TVP[Sar][NMeF]; ester I:1-I:C, II:1-II:C; linker I:N-II:N via Actinocin(9to1); configuration not given here), in experiment [1], the GI50 is 0.00491 µM and the TGI came out at 0.0564 µM.

Regarding `COc1ccccc1C(=O)N(C)c1ccc(Cl)c(C(=O)OC(C)C)c1`, the TGI in experiment [1] is greater than 100 µM.

As for `O=C(CC/C(CC(=O)c1ccc(Br)cc1)=N\O)Nc1ccc(Cl)c(Cl)c1`, the TGI in [2], in experiment [3], in experiment [4], in experiment [5], in experiment [6] and in experiment [7] was greater than 100 µM each time.

Turning to `CC(=O)[O-].O=C([CH-]C(=O)c1ccccc1)c1ccccc1.O=C([CH-]C(=O)c1ccccc1)c1ccccc1.[Sm+3]`, in experiment [3], the GI50 was 7.33 µM and the TGI came out at 36.5 µM.

On to `Cn1c(=O)c2/c(n(C)c1=O)=N\C=c1\c(=O)n(C)c(=O)n(C)\c1=N\C=2`, for which the TGI in [2], in [3], in [4], in experiment [5], in experiment [6] and in experiment [7] was greater than 100 µM each time. This compound registered a TGI in experiment [8] greater than 100 µM.

Take `O=C1CSc2cc([N+](=O)[O-])ccc2N1`: the TGI in [2], in experiment [3], in [4], in [5], in experiment [6] and in [7] was greater than 100 µM each time. The TGI in experiment [8] and in [9] was greater than 100 µM in each case.

In experiment [1], `O=C(O)/C(=C\c1ccncc1)c1cccc2ccccc12` yielded a TGI greater than 100 µM.

`CC(C)=CCCC(C)C1=C(O)C(=O)C(C)=CC1=O` (stereo not drawn) yielded a TGI in experiment [1] of 21.7 µM.

In experiment [1], `Cc1c([N+](=O)[O-])oc2ccc3ccccc3c12` yielded a TGI greater than 100 µM.

For the compound `Cn1cccc1/C=C/c1cc(Br)c(/C=C/c2cccn2C)cc1Br`, the TGI in [2] stood at 35.2 µM; in experiment [3], 58.4 µM; in experiment [4] it was 4.97 µM; in experiment [6], 53.7 µM; in experiment [7], 28 µM; in experiment [8] it was 49.4 µM.

Take `O=C(NC(=O)c1ccccc1[N+](=O)[O-])Nc1ccc(Oc2ncc(Cl)cn2)c(C(F)(F)F)c1`: the TGI in [3] was less than 0.0231 µM; in experiment [4] it was greater than 100 µM; in experiment [5], greater than 100 µM; in experiment [6], greater than 100 µM; in [7], greater than 100 µM; in [9] it was 1.62 µM.

On to `O=C(CCC(=O)C1CCC/C1=N/O)Nc1ccc(Cl)cc1` (stereo not drawn), for which the TGI in experiment [3], in experiment [4], in experiment [5], in experiment [6], in [7] and in experiment [8] was greater than 100 µM throughout. The compound also came in with a TGI in [9] greater than 100 µM.

`Brc1cc2c(cc1Br)CN(c1ccccc1)C2`: the TGI in [2], in experiment [3], in experiment [4], in [5], in experiment [6] and in experiment [9] was greater than 100 µM throughout.

With `CN(C)C(=O)Oc1c(-c2ccccc2)c(=O)n2c3ccccc3n3c(=O)n(C)c(=O)c1c23`, the TGI in [2], in [4], in experiment [5], in [6], in experiment [7] and in experiment [8] was greater than 100 µM in each case. This compound registered a TGI in experiment [9] greater than 100 µM.

With `O=C1/C(=C/c2ccc(Br)cc2)CCC/C1=C\c1ccc(Br)cc1`, the TGI was 38.7 µM in experiment [2]; greater than 100 µM in experiment [3]; 31.6 µM in [4]; 58.3 µM in experiment [5]; 32.9 µM in experiment [6]; 78.6 µM in [7]. Besides, the TGI in experiment [8] was found to be 18.1 µM; in experiment [9], 52 µM.

With `CCCCCCCCCCC(C)CCCCCCC(=O)O` (stereo not drawn), the TGI in [2], in [4], in [5], in [6], in experiment [7] and in experiment [8] was greater than 100 µM throughout.

In the case of `CC(=O)[CH-]C(=O)c1ccccc1.CC(=O)[CH-]C(=O)c1ccccc1.CC[O-].O=C1c2ccccc2C(=O)c2c1ccc(O)c2[O-].[Ti+4]`, the results for the GI50 in experiment [3] and in experiment [7] were 80.5 µM and 23.1 µM, respectively. In addition, the TGI in [3] was greater than 100 µM; in [4] it was greater than 100 µM; in experiment [6] it was 80.2 µM; in [7], 88.3 µM.

In the case of `O=S1Nc2c(Cl)cc(Cl)c(Cl)c2S1` (stereo not drawn), the TGI in experiment [2], in experiment [3], in experiment [4], in experiment [5], in experiment [6] and in experiment [7] was greater than 100 µM in each case.

Take `CC(=O)[CH-]C(C)=O.CC(=O)[CH-]C(C)=O.CC[O-].CC[O-].[Ti+4]`: in experiment [2], the GI50 is greater than 100 µM and the TGI was greater than 100 µM. Also, in experiment [4], the GI50 is greater than 100 µM and the TGI is greater than 100 µM.

For `Cc1cccc2c(O)cc(=O)oc12`, the TGI in experiment [2], in experiment [3], in [4], in [5], in [6] and in [7] was greater than 100 µM in each case. The compound also showed a TGI in experiment [9] greater than 100 µM.

`CC(=O)N/C(=C\c1ccc(Cc2nc3c([nH]2)C(=O)c2ccccc2C3=O)cc1)c1nc2c([nH]1)C(=O)c1ccccc1C2=O`: the TGI in [2], in [3], in experiment [4] and in [6] was greater than 100 µM each time.

The compound `O=[N+]([O-])c1cccc2nccc(NCCCO)c12` showed a TGI in [1] of 22.2 µM.
